In US10829481B2, “Benzimidazole derivatives as modulators of ROR-gamma” (Vitae Pharmaceuticals, LLC, priority 2016, dated 2020):

Columns and labels:
[1] = target: recombinant RORγ Ligand Binding Domain (LBD) protein (Homo sapiens (Human), UniProt P51449); experiment: Radio-Ligand RORγ Binding Assay (Assay 1); conditions: competition with 25-hydroxy [26,27-3H]-cholesterol, SPA
Summary of the method: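 Scintillation proximity competition against 25-hydroxy [26,27-^3H]-cholesterol (8.6 nM solution) for 6×His-GST-tagged RORγ LBD (24 nM solution) in HEPES pH 7.4 with CHAPS, β-octylglucopyranoside and DTT; semi-log compound dilutions, ~1 h total at rt with poly-Lys YSi beads. IC50 from four-parameter fit; Ki derived from [RL] and radioligand KD.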

[2] = target: full-length RORγt in Jurkat cells (Homo sapiens (Human), UniProt P51449); experiment: RORγt 5×RORE Assay in Jurkat Cells (Assay 2); assay type: cell-based; conditions: 5×RORE Nanoluc luciferase reporter
full-length RORγt in Jurkat cells, sequence (P51449 other isoform, or with tags, fused parts or gaps): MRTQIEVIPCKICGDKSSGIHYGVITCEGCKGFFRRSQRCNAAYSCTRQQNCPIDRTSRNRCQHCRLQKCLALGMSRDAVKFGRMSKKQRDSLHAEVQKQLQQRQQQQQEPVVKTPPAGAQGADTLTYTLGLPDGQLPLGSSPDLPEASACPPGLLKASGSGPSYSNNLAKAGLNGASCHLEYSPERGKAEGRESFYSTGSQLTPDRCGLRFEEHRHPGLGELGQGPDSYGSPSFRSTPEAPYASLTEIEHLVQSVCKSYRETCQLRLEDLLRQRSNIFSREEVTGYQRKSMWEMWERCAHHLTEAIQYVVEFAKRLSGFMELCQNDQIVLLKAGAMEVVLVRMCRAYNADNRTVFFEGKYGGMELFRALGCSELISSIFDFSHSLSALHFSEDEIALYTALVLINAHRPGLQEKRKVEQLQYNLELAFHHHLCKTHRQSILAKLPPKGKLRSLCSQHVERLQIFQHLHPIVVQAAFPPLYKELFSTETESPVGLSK

recombinant RORγ Ligand Binding Domain (LBD) protein, sequence (P51449 269-508): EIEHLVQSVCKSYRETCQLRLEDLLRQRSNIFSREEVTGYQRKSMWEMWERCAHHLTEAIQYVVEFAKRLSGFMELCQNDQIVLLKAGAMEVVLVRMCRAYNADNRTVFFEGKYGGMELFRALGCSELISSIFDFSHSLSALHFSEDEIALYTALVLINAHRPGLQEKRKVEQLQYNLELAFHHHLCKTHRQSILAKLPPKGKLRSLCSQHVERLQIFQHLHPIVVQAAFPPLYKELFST

Row | Ki [1] [nM] | IC50 [2] [nM] | Structure (SMILES)
1 | < 100 | < 100 | CCS(=O)(=O)c1ccc(CNC(=O)c2ccc3c(c2)nc(C(F)(F)F)n3Cc2cccc3c2OC(F)(F)O3)nc1 [I-63, 1-((2,2-difluorobenzo[d][1,3]dioxol-4-yl)methyl)-N-((5-(ethylsulfonyl)pyridin-2-yl)methyl)-2-(trifluoromethyl)-1H-benzo[d]imidazole-5-carboxamide]
2 | < 100 | < 100 | CCS(=O)(=O)c1ccc(CNC(=O)c2ccc3c(c2)nc(C2CC2)n3Cc2cccc3c2OC(F)(F)O3)nc1 [I-64, 2-cyclopropyl-1-((2,2-difluorobenzo[d][1,3]dioxol-4-yl)methyl)-N-((5-(ethylsulfonyl)pyridin-2-yl)methyl)-1H-benzo[d]imidazole-5-carboxamide]
3 | < 100 | < 100 | CCS(=O)(=O)c1ccc(CNC(=O)c2ccc3c(c2)nc(C2CCC2)n3Cc2cccc3c2OC(F)(F)O3)nc1 [I-65, 2-cyclobutyl-1-((2,2-difluorobenzo[d][1,3]dioxol-4-yl)methyl)-N-((5-(ethylsulfonyl)pyridin-2-yl)methyl)-1H-benzo[d]imidazole-5-carboxamide]
4 | < 100 | < 100 | CCS(=O)(=O)c1ccc(CNC(=O)c2ccc3c(c2)nc(C(C)(F)F)n3Cc2cccc3c2OC(F)(F)O3)nc1 [I-66, 1-((2,2-difluorobenzo[d][1,3]dioxol-4-yl)methyl)-2-(1,1-difluoroethyl)-N-((5-(ethylsulfonyl)pyridin-2-yl)methyl)-1H-benzo[d]imidazole-5-carboxamide]
5 | < 100 | < 100 | CCS(=O)(=O)c1ccc(CNC(=O)c2ccc3c(c2)nc(C2(F)CC2)n3Cc2cccc3c2OC(F)(F)O3)nc1 [I-67, 1-((2,2-difluorobenzo[d][1,3]dioxol-4-yl)methyl)-N-((5-(ethylsulfonyl)pyridin-2-yl)methyl)-2-(1-fluorocyclopropyl)-1H-benzo[d]imidazole-5-carboxamide]
6 | < 100 | < 100 | CS(=O)(=O)c1ccc(CNC(=O)c2ccc3c(c2)nc(C2(F)CC2)n3Cc2cccc3c2OC(F)(F)O3)nc1 [I-68, 1-((2,2-difluorobenzo[d][1,3]dioxol-4-yl)methyl)-2-(1-fluorocyclopropyl)-N-((5-(methylsulfonyl)pyridin-2-yl)methyl)-1H-benzo[d]imidazole-5-carboxamide]
7 | < 100 | < 100 | CCS(=O)(=O)c1ccc(CNC(=O)c2ccc3c(c2)nc(C2(F)CCC2)n3Cc2cccc3c2OC(F)(F)O3)nc1 [I-69, 1-((2,2-difluorobenzo[d][1,3]dioxol-4-yl)methyl)-N-((5-(ethylsulfonyl)pyridin-2-yl)methyl)-2-(1-fluorocyclobutyl)-1H-benzo[d]imidazole-5-carboxamide]
8 | < 100 | < 100 | CS(=O)(=O)c1ccc(CNC(=O)c2ccc3c(c2)nc(C(F)(F)F)n3Cc2cccc3c2OC(F)(F)O3)nc1 [I-70, 1-((2,2-difluorobenzo[d][1,3]dioxol-4-yl)methyl)-N-((5-(methylsulfonyl)pyridin-2-yl)methyl)-2-(trifluoromethyl)-1H-benzo[d]imidazole-5-carboxamide]
9 | < 100 | < 100 | CS(=O)(=O)N1CCC(CNC(=O)c2ccc3c(c2)nc(C(F)(F)F)n3Cc2cccc3c2OC(F)(F)O3)CC1 [I-71, 1-((2,2-difluorobenzo[d][1,3]dioxol-4-yl)methyl)-N-((1-(methylsulfonyl)piperidin-4-yl)methyl)-2-(trifluoromethyl)-1H-benzo[d]imidazole-5-carboxamide]
10 | < 100 | < 100 | CS(=O)(=O)N1CCC(CNC(=O)c2ccc3c(c2)nc(C2CC2)n3Cc2cccc3c2OC(F)(F)O3)CC1 [I-72, 2-cyclopropyl-1-((2,2-difluorobenzo[d][1,3]dioxol-4-yl)methyl)-N-((1-(methylsulfonyl)piperidin-4-yl)methyl)-1H-benzo[d]imidazole-5-carboxamide]
11 | < 100 | < 100 | CS(=O)(=O)N1CCC(CNC(=O)c2ccc3c(c2)nc(C2(F)CC2)n3Cc2cccc3c2OC(F)(F)O3)CC1 [I-73, 1-((2,2-difluorobenzo[d][1,3]dioxol-4-yl)methyl)-2-(1-fluorocyclopropyl)-N-((1-(methylsulfonyl)piperidin-4-yl)methyl)-1H-benzo[d]imidazole-5-carboxamide]
12 | < 100 | < 100 | COC(=O)CS(=O)(=O)N1CCC(CNC(=O)c2ccc3c(c2)nc(C(F)(F)F)n3Cc2cccc3c2OC(F)(F)O3)CC1 [I-74, methyl 2-((4-((1-((2,2-difluorobenzo[d][1,3]dioxol-4-yl)methyl)-2-(trifluoromethyl)-1H-benzo[d]imidazole-5-carboxamido)methyl)piperidin-1-yl)sulfonyl)acetate]
13 | < 100 | < 100 | CNC(=O)CS(=O)(=O)N1CCC(CNC(=O)c2ccc3c(c2)nc(C(F)(F)F)n3Cc2cccc3c2OC(F)(F)O3)CC1 [I-75, 1-((2,2-difluorobenzo[d][1,3]dioxol-4-yl)methyl)-N-((1-((2-(methylamino)-2-oxoethyl)sulfonyl)piperidin-4-yl)methyl)-2-(trifluoromethyl)-1H-benzo[d]imidazole-5-carboxamide]
14 | < 100 | < 100 | COC(=O)C(NC(=O)c1ccc2c(c1)nc(C(F)(F)F)n2Cc1cccc2c1OC(F)(F)O2)C1CCN(S(C)(=O)=O)CC1 (centres unmarked) [I-76, methyl 2-(1-((2,2-difluorobenzo[d][1,3]dioxol-4-yl)methyl)-2-(trifluoromethyl)-1H-benzo[d]imidazole-5-carboxamido)-2-(1-(methylsulfonyl)piperidin-4-yl)acetate]
15 | < 100 | < 100 | CNS(=O)(=O)N1CCC(CNC(=O)c2ccc3c(c2)nc(C(F)(F)F)n3Cc2cccc3c2OC(F)(F)O3)CC1 [I-77, 1-((2,2-difluorobenzo[d][1,3]dioxol-4-yl)methyl)-N-((1-(N-methylsulfamoyl)piperidin-4-yl)methyl)-2-(trifluoromethyl)-1H-benzo[d]imidazole-5-carboxamide]
16 | < 100 | < 100 | NC(=O)CS(=O)(=O)N1CCC(CNC(=O)c2ccc3c(c2)nc(C(F)(F)F)n3Cc2cccc3c2OC(F)(F)O3)CC1 [I-78, N-((1-((2-amino-2-oxoethyl)sulfonyl)piperidin-4-yl)methyl)-1-((2,2-difluorobenzo[d][1,3]dioxol-4-yl)methyl)-2-(trifluoromethyl)-1H-benzo[d]imidazole-5-carboxamide]
17 | < 100 | 100 to 1000 | CNC(=O)CS(=O)(=O)N1CCC(CNC(=O)c2ccc3c(c2)nc(C2CC2)n3Cc2cccc3c2OC(F)(F)O3)CC1 [I-79, 2-cyclopropyl-1-((2,2-difluorobenzo[d][1,3]dioxol-4-yl)methyl)-N-((1-((2-(methylamino)-2-oxoethyl)sulfonyl)piperidin-4-yl)methyl)-1H-benzo[d]imidazole-5-carboxamide]
18 | < 100 | 100 to 1000 | CCS(=O)(=O)c1ccc([C@H](CO)NC(=O)c2ccc3c(c2)nc(C(F)(F)F)n3Cc2cccc3c2OCC3)cc1 [I-80, (R)-1-((2,3-dihydrobenzofuran-7-yl)methyl)-N-(1-(4-(ethylsulfonyl)phenyl)-2-hydroxyethyl)-2-(trifluoromethyl)-1H-benzo[d]imidazole-5-carboxamide]
19 | < 100 | < 100 | CCS(=O)(=O)c1ccc([C@H](CO)NC(=O)c2ccc3c(c2)nc(C(F)(F)F)n3Cc2cccc3c2OCO3)cc1 [I-81, (R)-1-(benzo[d][1,3]dioxol-4-ylmethyl)-N-(1-(4-(ethylsulfonyl)phenyl)-2-hydroxyethyl)-2-(trifluoromethyl)-1H-benzo[d]imidazole-5-carboxamide]
20 | < 100 | > 1000 | CCS(=O)(=O)c1ccc(CNC(=O)c2ccc3c(c2)nc(C(F)(F)F)n3Cc2cc(OC)cc(OC)c2)cc1 [I-82, 1-(3,5-dimethoxybenzyl)-N-(4-(ethylsulfonyl)benzyl)-2-(trifluoromethyl)-1H-benzo[d]imidazole-5-carboxamide]
21 | < 100 | 100 to 1000 | CCS(=O)(=O)c1ccc(CNC(=O)c2ccc3c(c2)nc(C(F)(F)F)n3Cc2ccc(OC)c(C#N)c2)cc1 [I-83, 1-(3-cyano-4-methoxybenzyl)-N-(4-(ethylsulfonyl)benzyl)-2-(trifluoromethyl)-1H-benzo[d]imidazole-5-carboxamide]
22 | < 100 | 100 to 1000 | CCS(=O)(=O)c1ccc(CNC(=O)c2ccc3c(c2)nc(C(F)(F)F)n3Cc2ccc(OC(F)(F)F)cc2)cc1 [I-84, N-(4-(ethylsulfonyl)benzyl)-1-(4-(trifluoromethoxy)benzyl)-2-(trifluoromethyl)-1H-benzo[d]imidazole-5-carboxamide]
23 | < 100 | > 1000 | CCS(=O)(=O)c1ccc(CNC(=O)c2ccc3c(c2)nc(C(F)(F)F)n3Cc2ccc(C#N)cc2)cc1 [I-85, 1-(4-cyanobenzyl)-N-(4-(ethylsulfonyl)benzyl)-2-(trifluoromethyl)-1H-benzo[d]imidazole-5-carboxamide]
24 | < 100 | < 100 | CCS(=O)(=O)c1ccc(CNC(=O)c2ccc3c(c2)nc(C(F)(F)F)n3Cc2cccc(OC)c2)cc1 [I-88, N-(4-(ethylsulfonyl)benzyl)-1-(3-methoxybenzyl)-2-(trifluoromethyl)-1H-benzo[d]imidazole-5-carboxamide]
25 | < 100 | 100 to 1000 | CCS(=O)(=O)c1ccc(CNC(=O)c2ccc3c(c2)nc(C(F)(F)F)n3Cc2ccnc(OC)c2)cc1 [I-89, N-(4-(ethylsulfonyl)benzyl)-1-((2-methoxypyridin-4-yl)methyl)-2-(trifluoromethyl)-1H-benzo[d]imidazole-5-carboxamide]
